Columns and labels:
[1] = biological target: Beta-2 adrenergic receptor (Homo sapiens, UniProt P07550); type: functional, cell-based
[2] = biological target: T1, Muscarinic acetylcholine receptor M2 (Homo sapiens, UniProt P08172); type: functional, cell-based
T1 sequence (P08172 whole entry): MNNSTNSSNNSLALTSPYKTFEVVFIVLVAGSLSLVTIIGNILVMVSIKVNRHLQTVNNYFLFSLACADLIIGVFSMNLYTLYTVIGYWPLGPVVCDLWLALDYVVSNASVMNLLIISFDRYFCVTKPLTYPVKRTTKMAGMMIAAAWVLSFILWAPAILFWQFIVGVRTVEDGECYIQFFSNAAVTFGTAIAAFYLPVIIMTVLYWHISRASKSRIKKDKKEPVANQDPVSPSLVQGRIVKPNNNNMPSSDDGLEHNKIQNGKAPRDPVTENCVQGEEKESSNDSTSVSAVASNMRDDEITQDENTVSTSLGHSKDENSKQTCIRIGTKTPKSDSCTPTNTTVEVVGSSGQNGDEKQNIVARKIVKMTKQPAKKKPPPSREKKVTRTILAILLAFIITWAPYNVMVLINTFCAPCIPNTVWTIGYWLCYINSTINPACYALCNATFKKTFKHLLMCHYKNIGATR

Cannabinoid receptor 1 = Cannabinoid receptor 1 (Homo sapiens, UniProt P21554); type: functional, cell-based
Estrogen receptor = biological target: T2, Estrogen receptor (Homo sapiens, UniProt P03372)
T2 sequence (P03372 whole entry): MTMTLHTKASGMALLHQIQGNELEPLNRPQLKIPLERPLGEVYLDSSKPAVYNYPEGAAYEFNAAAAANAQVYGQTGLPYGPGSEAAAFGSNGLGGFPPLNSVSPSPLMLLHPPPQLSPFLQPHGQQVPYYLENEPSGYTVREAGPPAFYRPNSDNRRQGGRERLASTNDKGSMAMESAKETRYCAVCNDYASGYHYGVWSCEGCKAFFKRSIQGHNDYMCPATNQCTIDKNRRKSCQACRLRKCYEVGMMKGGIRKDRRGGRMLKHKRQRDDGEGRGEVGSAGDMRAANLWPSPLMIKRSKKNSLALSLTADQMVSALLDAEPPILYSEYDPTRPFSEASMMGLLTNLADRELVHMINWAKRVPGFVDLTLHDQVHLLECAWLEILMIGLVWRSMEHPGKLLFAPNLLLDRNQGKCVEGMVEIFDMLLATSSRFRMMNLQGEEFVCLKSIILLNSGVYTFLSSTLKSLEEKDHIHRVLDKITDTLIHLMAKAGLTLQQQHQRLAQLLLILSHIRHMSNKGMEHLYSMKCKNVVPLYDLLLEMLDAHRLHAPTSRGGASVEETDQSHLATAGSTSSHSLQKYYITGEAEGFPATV

[3] = biological target: Gamma-aminobutyric acid receptor subunit alpha-1 (Rattus norvegicus, UniProt P62813)
[4] = biological target: Delta-type opioid receptor (Homo sapiens, UniProt P41143)
[5] = biological target: Kappa-type opioid receptor (Homo sapiens, UniProt P41145)
[6] = biological target: T3, Amine oxidase [flavin-containing] A (Homo sapiens, UniProt P21397); type: functional
T3 sequence (P21397 whole entry): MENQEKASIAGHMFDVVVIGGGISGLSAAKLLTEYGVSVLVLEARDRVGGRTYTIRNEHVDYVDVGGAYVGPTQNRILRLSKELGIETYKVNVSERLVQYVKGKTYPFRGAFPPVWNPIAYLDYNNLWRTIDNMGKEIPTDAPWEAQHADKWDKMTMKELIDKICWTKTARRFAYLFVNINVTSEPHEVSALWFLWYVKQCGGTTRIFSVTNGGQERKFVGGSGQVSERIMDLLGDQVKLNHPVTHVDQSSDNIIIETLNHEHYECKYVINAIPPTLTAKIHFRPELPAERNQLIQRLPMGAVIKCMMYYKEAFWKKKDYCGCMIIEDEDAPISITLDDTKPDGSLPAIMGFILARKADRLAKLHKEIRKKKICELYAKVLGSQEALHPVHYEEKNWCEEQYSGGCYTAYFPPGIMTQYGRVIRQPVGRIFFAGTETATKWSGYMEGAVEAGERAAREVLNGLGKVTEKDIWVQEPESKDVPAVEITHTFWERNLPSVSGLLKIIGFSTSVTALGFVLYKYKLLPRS

[7] = biological target: T4, Alpha-1A adrenergic receptor (Homo sapiens, UniProt P35348); type: functional, cell-based
T4 sequence (P35348 whole entry): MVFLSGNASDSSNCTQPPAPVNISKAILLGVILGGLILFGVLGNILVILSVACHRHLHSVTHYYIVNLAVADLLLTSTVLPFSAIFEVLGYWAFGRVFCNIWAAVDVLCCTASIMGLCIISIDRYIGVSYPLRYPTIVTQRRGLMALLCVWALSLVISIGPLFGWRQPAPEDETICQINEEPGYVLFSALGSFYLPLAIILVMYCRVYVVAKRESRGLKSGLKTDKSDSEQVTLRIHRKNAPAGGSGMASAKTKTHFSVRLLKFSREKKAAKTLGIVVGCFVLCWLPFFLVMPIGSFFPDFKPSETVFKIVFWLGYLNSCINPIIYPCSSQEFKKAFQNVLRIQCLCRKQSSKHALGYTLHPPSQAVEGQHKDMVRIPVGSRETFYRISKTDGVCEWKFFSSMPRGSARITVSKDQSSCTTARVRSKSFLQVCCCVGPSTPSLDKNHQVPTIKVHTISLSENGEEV

Motilin receptor = Motilin receptor (Homo sapiens, UniProt O43193)
[8] = biological target: T5, Equilibrative nucleoside transporter 1 (Homo sapiens, UniProt Q99808)
T5 sequence (Q99808 whole entry): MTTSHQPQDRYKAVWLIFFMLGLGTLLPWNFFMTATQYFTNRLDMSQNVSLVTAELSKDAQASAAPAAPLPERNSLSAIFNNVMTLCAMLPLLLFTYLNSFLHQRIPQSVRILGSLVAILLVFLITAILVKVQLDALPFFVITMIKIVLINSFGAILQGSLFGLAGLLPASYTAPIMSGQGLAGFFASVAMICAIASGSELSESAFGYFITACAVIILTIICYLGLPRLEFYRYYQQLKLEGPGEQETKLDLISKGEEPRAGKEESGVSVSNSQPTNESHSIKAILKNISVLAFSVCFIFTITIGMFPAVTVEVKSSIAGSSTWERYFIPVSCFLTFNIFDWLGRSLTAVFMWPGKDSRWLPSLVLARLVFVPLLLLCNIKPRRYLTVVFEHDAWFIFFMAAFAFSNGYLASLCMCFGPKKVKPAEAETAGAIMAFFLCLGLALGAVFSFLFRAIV
Further: assay procedure not described here.

Sequence of Beta-2 adrenergic receptor (P07550 whole entry): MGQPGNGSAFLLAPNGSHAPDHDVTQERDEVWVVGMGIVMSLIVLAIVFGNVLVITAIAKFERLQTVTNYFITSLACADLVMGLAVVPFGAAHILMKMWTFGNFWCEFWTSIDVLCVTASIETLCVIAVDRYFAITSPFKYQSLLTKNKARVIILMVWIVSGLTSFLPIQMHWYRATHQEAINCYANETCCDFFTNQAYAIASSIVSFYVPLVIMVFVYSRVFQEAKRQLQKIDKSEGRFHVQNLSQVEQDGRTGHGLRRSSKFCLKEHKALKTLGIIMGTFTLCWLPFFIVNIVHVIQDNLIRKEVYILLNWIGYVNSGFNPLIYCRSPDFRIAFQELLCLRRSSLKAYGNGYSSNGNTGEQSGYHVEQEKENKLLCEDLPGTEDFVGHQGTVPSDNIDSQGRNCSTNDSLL
Sequence of Delta-type opioid receptor (P41143 whole entry): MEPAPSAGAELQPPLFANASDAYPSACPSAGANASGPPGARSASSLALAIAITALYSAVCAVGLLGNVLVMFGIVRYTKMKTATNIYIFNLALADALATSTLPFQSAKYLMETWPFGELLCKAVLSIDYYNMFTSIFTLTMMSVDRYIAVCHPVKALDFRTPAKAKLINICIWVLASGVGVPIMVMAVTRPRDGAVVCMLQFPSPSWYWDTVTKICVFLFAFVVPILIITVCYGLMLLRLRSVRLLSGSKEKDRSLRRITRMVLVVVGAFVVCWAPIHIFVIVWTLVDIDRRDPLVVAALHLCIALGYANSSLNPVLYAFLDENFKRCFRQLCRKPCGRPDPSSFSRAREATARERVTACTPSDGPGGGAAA
Sequence of Gamma-aminobutyric acid receptor subunit alpha-1 (P62813 whole entry): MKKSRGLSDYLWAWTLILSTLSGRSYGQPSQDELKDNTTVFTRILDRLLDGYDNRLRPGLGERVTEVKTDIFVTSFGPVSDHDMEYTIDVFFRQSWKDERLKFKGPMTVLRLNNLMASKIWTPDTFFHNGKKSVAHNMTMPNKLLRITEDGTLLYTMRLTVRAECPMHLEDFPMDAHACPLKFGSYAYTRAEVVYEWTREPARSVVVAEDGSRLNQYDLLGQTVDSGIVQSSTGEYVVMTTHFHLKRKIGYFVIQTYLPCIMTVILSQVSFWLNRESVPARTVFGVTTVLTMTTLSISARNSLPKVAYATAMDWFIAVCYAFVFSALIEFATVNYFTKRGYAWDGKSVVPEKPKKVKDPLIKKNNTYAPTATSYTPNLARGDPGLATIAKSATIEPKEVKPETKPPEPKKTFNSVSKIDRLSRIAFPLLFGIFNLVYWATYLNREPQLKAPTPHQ
Sequence of Kappa-type opioid receptor (P41145 whole entry): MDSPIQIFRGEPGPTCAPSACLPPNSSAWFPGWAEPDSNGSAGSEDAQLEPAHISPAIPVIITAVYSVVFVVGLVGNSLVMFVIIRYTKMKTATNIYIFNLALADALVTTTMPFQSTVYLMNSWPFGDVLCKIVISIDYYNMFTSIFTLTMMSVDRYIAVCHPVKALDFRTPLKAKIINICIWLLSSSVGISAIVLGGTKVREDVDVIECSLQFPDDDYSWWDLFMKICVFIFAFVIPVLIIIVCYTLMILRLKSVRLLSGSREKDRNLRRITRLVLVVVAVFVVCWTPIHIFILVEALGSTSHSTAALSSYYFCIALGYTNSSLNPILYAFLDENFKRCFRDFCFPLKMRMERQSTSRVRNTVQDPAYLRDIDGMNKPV
Sequence of Motilin receptor (O43193 whole entry): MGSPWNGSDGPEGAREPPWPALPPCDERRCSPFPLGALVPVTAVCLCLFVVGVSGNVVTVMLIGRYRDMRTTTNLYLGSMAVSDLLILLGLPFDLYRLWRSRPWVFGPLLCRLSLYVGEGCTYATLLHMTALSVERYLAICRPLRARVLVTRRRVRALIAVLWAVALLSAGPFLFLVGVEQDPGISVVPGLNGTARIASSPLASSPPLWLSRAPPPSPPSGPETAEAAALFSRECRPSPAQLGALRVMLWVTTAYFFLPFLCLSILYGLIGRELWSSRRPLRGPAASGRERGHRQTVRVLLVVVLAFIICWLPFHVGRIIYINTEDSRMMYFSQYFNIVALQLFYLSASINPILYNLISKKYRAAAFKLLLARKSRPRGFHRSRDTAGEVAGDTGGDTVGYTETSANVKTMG
Sequence of Cannabinoid receptor 1 (P21554 whole entry): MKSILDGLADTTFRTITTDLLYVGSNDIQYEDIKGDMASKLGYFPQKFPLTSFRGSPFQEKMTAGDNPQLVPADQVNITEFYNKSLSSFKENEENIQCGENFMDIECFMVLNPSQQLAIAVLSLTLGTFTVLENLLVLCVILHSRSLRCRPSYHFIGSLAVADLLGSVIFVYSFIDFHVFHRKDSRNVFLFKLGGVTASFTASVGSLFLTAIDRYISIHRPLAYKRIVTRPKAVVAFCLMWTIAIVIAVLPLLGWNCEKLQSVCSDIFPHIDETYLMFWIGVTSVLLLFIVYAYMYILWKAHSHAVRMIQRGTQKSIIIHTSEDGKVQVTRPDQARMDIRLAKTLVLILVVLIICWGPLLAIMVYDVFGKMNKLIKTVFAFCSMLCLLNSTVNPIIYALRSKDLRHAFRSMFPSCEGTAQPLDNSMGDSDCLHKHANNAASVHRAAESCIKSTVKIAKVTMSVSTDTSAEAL

Row | SMILES | AC50 [1] | AC50 [2] | AC50 (Cannabinoid receptor 1) | AC50 (Estrogen receptor) | AC50 [3] | AC50 [4] | AC50 [5] | AC50 [6] | AC50 [7] | AC50 (Motilin receptor) | AC50 [8]
1 | C[N+](C)(C)CCOP(=O)(O)OP(=O)([O-])OC[C@H]1O[C@@H](n2ccc(N)nc2=O)[C@H](O)[C@@H]1O [CITICOLINE] | > 30 µM | > 30 µM | > 30 µM | > 30 µM | > 30 µM | > 30 µM | > 30 µM | > 30 µM | > 30 µM | – | –
2 | O=C1Cc2cc(CCN3CCN(c4nsc5ccccc45)CC3)c(Cl)cc2N1 [ZIPRASIDONE] | > 30 µM | > 10 µM | > 30 µM | > 30 µM | > 10 µM | > 30 µM | – | > 10 µM | 0.684 µM | > 10 µM | > 30 µM
3 | O=C(O)Cc1ccccc1Oc1ccc(Cl)cc1Cl [FENCLOFENAC] | > 30 µM | > 10 µM | > 30 µM | > 30 µM | > 10 µM | > 30 µM | > 10 µM | > 10 µM | > 30 µM | > 10 µM | > 30 µM
4 | CCC(=O)O[C@]1(C(=O)CCl)[C@@H](C)C[C@H]2[C@@H]3CCC4=CC(=O)C=C[C@]4(C)[C@@]3(F)[C@@H](O)C[C@@]21C [CLOBETASOL PROPIONATE] | > 30 µM | > 30 µM | > 30 µM | – | > 30 µM | > 30 µM | > 30 µM | > 30 µM | > 30 µM | 25 µM | > 30 µM
5 | CCCc1nc2c(C)cc(-c3nc4ccccc4n3C)cc2n1Cc1ccc(-c2ccccc2C(=O)O)cc1 | > 30 µM | 5.16 µM | > 10 µM | > 30 µM | > 30 µM | – | > 30 µM | > 30 µM | 3 µM | > 30 µM | > 30 µM
6 | CCOc1nc2cccc(C(=O)O)c2n1Cc1ccc(-c2ccccc2-c2nnn[nH]2)cc1 | > 30 µM | > 30 µM | > 30 µM | – | > 10 µM | > 30 µM | > 10 µM | > 30 µM | > 30 µM | > 30 µM | > 30 µM
7 | Cc1ccc(C)c(OCCCC(C)(C)C(=O)O)c1 [GEMFIBROZIL] | > 30 µM | > 10 µM | > 30 µM | > 30 µM | > 10 µM | > 30 µM | > 10 µM | > 10 µM | > 30 µM | > 10 µM | > 30 µM
8 | CCCNC(=O)NS(=O)(=O)c1ccc(Cl)cc1 [CHLORPROPAMIDE] | > 30 µM | > 10 µM | > 30 µM | – | > 10 µM | > 30 µM | > 10 µM | > 10 µM | > 30 µM | > 10 µM | > 30 µM
9 | COc1cc(C(C)=O)ccc1OCCCN1CCC(c2noc3cc(F)ccc23)CC1 [ILOPERIDONE] | > 30 µM | 8.3 µM | > 30 µM | > 30 µM | – | > 30 µM | > 10 µM | > 30 µM | 0.0092 µM | > 30 µM | > 30 µM
10 | CN1Cc2c(N)cccc2C(c2ccccc2)C1 (centres undefined) [NOMIFENSINE] | > 30 µM | > 30 µM | > 30 µM | – | > 30 µM | > 30 µM | > 30 µM | > 30 µM | 13 µM | > 30 µM | > 30 µM
11 | CC(C)NC(=N)NC(=N)Nc1ccc(Cl)c(Cl)c1 [CHLORPROGUANIL] | > 30 µM | – | > 30 µM | > 30 µM | > 30 µM | > 30 µM | > 30 µM | > 30 µM | 12 µM | – | –
12 | CC(C)C[C@H](NC(=O)[C@@H](O)[C@H](N)Cc1ccccc1)C(=O)O [UBENIMEX] | > 30 µM | > 30 µM | > 30 µM | > 30 µM | > 30 µM | > 30 µM | > 30 µM | > 30 µM | > 30 µM | – | > 30 µM
